Test results as given in US20120110703A1, “PROTEIN HAVING NOVEL PRENYLT[…] AND GENE ENCODING THE SAME” (KIRIN HOLDINGS KABUSHIKI KAISHA, priority 2009, published 2012).

Key:
[1] = molecular target: T1, H1PT1 prenyltransferase (Humulus lupulus, UniProt A0A0B4ZTQ2); test: Prenyltransferase activity of recombinant H1PT1 (yeast microsome fraction), LC-MS analysis of products; assay type: biochemical; conditions: for activity of transferring a prenyl group to substrate (substrate specificity): geranyl diphosphate as prenyl group donor, LCMS-IT-TOF, FIGS. 6 and 7
T1 construct: made in house; host or cells: Saccharomyces cerevisiae W303-1A-Δcoq2 (microsome fraction)
T1 sequence (A0A0B4ZTQ2 47-408): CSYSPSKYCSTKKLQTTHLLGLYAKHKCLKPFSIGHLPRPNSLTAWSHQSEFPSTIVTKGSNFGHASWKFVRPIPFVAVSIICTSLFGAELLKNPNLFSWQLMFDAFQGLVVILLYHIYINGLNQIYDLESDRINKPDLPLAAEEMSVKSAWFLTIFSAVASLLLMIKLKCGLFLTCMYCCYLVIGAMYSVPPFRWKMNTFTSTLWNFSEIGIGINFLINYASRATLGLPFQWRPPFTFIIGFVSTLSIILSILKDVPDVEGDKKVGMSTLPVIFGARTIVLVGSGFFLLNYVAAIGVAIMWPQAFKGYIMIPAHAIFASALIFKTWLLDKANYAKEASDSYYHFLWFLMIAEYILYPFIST
Description: (§1) The enzyme of the present invention (340 μg to 730 μg), a substrate aromatic compound (1 mM) such as flavonoid, a prenyl group donor (1 mM), and MgCl2 (20 mM) are mixed in a 100 mM Tris-HCl buffer (pH 7.5) to bring the amount of the resultant to 200 μl, and the reaction is allowed to proceed at 30° C. overnight. After the completion of the reaction, the product is extracted with ethyl acetate, dried, and dissolved in MeOH. The resultant may be analyzed using a mass spectrometer or via chromatography.
Cloned plasmids (pDR196-H1PT1 and pDR196-H1PT2) comprising each full-length sequence of the two gene clusters (H1PT1 and H1PT2) were introduced into the yeast strain (W303-1A-Δcoq2) by the lithium acetate method. Culture was conducted in 180 ml of SD-Ura liquid medium up to the logarithmic growth phase to express recombinant proteins in yeast transformants, and microsome fractions were prepared therefrom using the method of Yazaki et al. (JBC, 2002, 277, 6240-6246). The total amount of the reaction solution was adjusted to 200 μl by mixing 340 μg to 730 μg of proteins from the microsome fractions, flavonoid (1 mM), a prenyl group donor (1 mM), 20 mM MgCl2, and 100 mM Tris-HCl buffer (pH 7.5), and the reaction was allowed to proceed at 30° C. overnight. After the completion of the reaction, the product was extracted with ethyl acetate, dried, and dissolved in methanol (MeOH). The resultant was analyzed using Shimadzu LCMS-2010A and LCMS-IT-TOF (Shimadzu Corporation), TSK-GEL ODS-80Ts 2.0 mm×25 cm (TOSOH), and a solvent system (0.3% formic acid:acetonitrile=3:7) at a flow rate of 0.2 ml/min−1. […] These compounds had not been prepared via the heterologous expression system with the use of a plant-derived gene in the past. 6-Geranylnaringenin (peak c in FIG. 4) was compared with a standard sample (provided by Associate professor Tomohisa Kuzuyama, the University of Tokyo), and the same retention time and identical fragments were observed (FIG. 5). Thus, novel prenyltransferase (i.e., H1PT1 full-length: 1,224 bp, ORF: […].; H1PT2 full-length: 1,233 bp, ORF: 411 a.a.) was obtained. The amino acid sequences of proteins encoded by H1PT1 and H1PT2 are shown in SEQ ID NOs: 1 and 2, respectively. The nucleotide sequences of H1PT1 and H1PT2 are shown in SEQ ID NOs: 3 and 4, respectively. […] Thus, H1PT1 was mainly subjected to analysis as described below; however, it was also possible to analyze H1PT2 in the same manner.
The Sophora flavescens gene (JP Patent Publication (Kokai) No. 2008-220304 A) and the soybean gene (Akashi et al., Plant Physiology 149: 683-693, 2009), which are already known, are known to encode enzymes that interact with limited substrates with very high specificity. The enzymatic properties of recombinant H1PT1 were analyzed using LCMS-IT-TOF. Geranyl diphosphate was used as a prenyl group donor for prenylation of various flavonoid-associated compounds (e.g., isoliquiritigenin, sakuranetin, taxifolin, or genistein).

[2] = molecular target: T2, H1PT2 prenyltransferase (Humulus lupulus, UniProt E5RP65); test: Prenyltransferase activity of recombinant H1PT2 (yeast microsome fraction), LC-MS analysis of products; assay type: biochemical; conditions: flavonoid 1 mM, geranyl diphosphate 1 mM as prenyl group donor, 20 mM MgCl2, pH 7.5, 30° C. overnight; FIG. 4
T2 construct: made in house; host or cells: Saccharomyces cerevisiae W303-1A-Δcoq2 (microsome fraction)
T2 sequence (E5RP65 92-411): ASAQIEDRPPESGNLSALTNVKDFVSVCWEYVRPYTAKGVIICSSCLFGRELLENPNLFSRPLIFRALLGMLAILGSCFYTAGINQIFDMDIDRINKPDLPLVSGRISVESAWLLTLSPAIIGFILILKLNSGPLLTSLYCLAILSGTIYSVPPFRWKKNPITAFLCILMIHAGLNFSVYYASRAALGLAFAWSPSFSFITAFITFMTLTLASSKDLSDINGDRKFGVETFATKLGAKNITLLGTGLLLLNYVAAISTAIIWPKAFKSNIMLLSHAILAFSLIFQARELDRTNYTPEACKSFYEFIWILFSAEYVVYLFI
Description: as §1
Cloned plasmids (pDR196-H1PT1 and pDR196-H1PT2) comprising each full-length sequence of the two gene clusters (H1PT1 and H1PT2) were introduced into the yeast strain (W303-1A-Δcoq2) by the lithium acetate method. Culture was conducted in 180 ml of SD-Ura liquid medium up to the logarithmic growth phase to express recombinant proteins in yeast transformants, and microsome fractions were prepared therefrom using the method of Yazaki et al. (JBC, 2002, 277, 6240-6246). […] The resultant was analyzed using Shimadzu LCMS-2010A and LCMS-IT-TOF (Shimadzu Corporation), TSK-GEL ODS-80Ts 2.0 mm×25 cm (TOSOH), and a solvent system (0.3% formic acid:acetonitrile=3:7) at a flow rate of 0.2 ml/min−1. […]

Row | Structure (SMILES) | activity of transferring a prenyl group to substrate (substrate specificity) [1] | prenylated products from substrate ([1]; flavonoid 1 mM, geranyl diphosphate 1 mM as prenyl group donor, 20 mM MgCl2, pH 7.5, 30° C. overnight, FIG. 4) | prenylated products from substrate [2]
1 | O=c1c(-c2ccc(O)cc2)coc2cc(O)cc(O)c12 [genistein] | activity of transferring a prenyl group to all substrates was observed | – | –
2 | COc1cc(O)c2c(c1)O[C@H](c1ccc(O)cc1)CC2=O [sakuranetin] | activity of transferring a prenyl group to all substrates was observed | – | –
3 | O=C1C[C@@H](c2ccc(O)cc2)Oc2cc(O)cc(O)c21 [naringenin] | – | a compound into which prenyl had been introduced at position 6 and a compound into which prenyl was deduced to have been introduced at position 8 or 3′ were detected | a compound into which prenyl had been introduced at position 6 and a compound into which prenyl was deduced to have been introduced at position 8 or 3′ were detected
4 | O=C(/C=C/c1ccc(O)cc1)c1ccc(O)cc1O [isoliquiritigenin] | activity of transferring a prenyl group to all substrates was observed | – | –
5 | O=C1c2c(O)cc(O)cc2O[C@H](c2ccc(O)c(O)c2)[C@H]1O [taxifolin] | activity of transferring a prenyl group to all substrates was observed | – | –
